This passage reports EC50, MIC and MCC results from ChEMBL document CHEMBL2150984, “Synthesis of fluorescent ristocetin aglycon derivatives with remarkable antibacterial and antiviral activities” (Eur J Med Chem, 2012).

Data set [1] deals with Influenza A virus. Nature of the data set: Antiviral activity against Influenza A/PR/8/34 infected in MDCK cells assessed as inhibition of virus-induced cytopathic effect measured on day 3 post infection by MTS assay. It counts as functional, organism-based. To be noted: A/Puerto Rico/8/1934(H1N1), 72 h. (In general: Protection from cytopathic effect is a common read-out in antiviral testing.)

The subject of data set [2] is Staphylococcus epidermidis. Put plainly: Antibacterial activity against Staphylococcus epidermidis expressing mecA gene by broth microdilution method. The data set is classed as functional.
In data set [3] the test system is Influenza B virus. Nature of the data set: Antiviral activity against Influenza B/HK/5/72 infected in MDCK cells assessed as inhibition of virus-induced cytopathic effect measured on day 3 post infection by MTS assay. The data set is classed as functional, cell-based. To be noted: B/Hong Kong/05/1972, MDCK, 72 h.
Data set [4] concerns Staphylococcus epidermidis. Put plainly: Antibacterial activity against biofilm forming Staphylococcus epidermidis ATCC 35984 by broth microdilution method. The data set is classed as functional. (In broth dilution the organism is exposed to a series of concentrations in liquid medium.)
Data set [5] in a line: Cytotoxicity against MDCK cells assessed as minimum concentration required to cause microscopically detectable alteration measured on day 3 post infection by MTS assay. The data set is classed as cell-based, Canis lupus familiaris. To be noted: dog. On the technique in general: Formazan colour is commonly taken as a measure of viable cells.
Data set [6] relates to H3N2 subtype. Nature of the data set: Antiviral activity against Influenza A/HK/7/87 infected in MDCK cells assessed as inhibition of virus-induced cytopathic effect measured on day 3 post infection by MTS assay. The data set is classed as functional, organism-based. To be noted: A/Hong Kong/7/1987(H3N2), 72 h.
Data set [7] deals with Staphylococcus aureus. Put plainly: Antibacterial activity against methicillin-sensitive Staphylococcus aureus ATCC 29213 by broth microdilution method. The data set is classed as functional.
Data set [8] concerns Bacillus subtilis. Nature of the data set: Antibacterial activity against Bacillus subtilis ATCC 6633 by broth microdilution method. The data set is classed as functional.
For data set [9], the system named is Enterococcus faecalis. Nature of the data set: Antibacterial activity against Enterococcus faecalis ATCC 29212 by broth microdilution method. The data set is classed as functional.
The subject of data set [10] is Staphylococcus aureus. Nature of the data set: Antibacterial activity against methicillin-resistant Staphylococcus aureus ATCC 33591 by broth microdilution method. It counts as functional.
For data set [11], the system named is Enterococcus faecalis. Nature of the data set: Antibacterial activity against Enterococcus faecalis ATCC 51299 expressing vanB gene by broth microdilution method. It counts as functional.
The test system of data set [12] is Enterococcus faecalis. Nature of the data set: Antibacterial activity against Enterococcus faecalis ATCC 15376 expressing vanA gene by broth microdilution method. It counts as functional.

In brackets after ≈: the same amount, converted by molar mass.

Take `COC(=O)[C@H]1NC(=O)[C@H]2NC(=O)[C@H](NC(=O)[C@@H]3NC(=O)[C@H]4NC(=O)[C@H](NC(=O)[C@H](n5cc6ccccc6c5Sc5ncccn5)c5ccc(O)c(c5)Oc5cc4cc(O)c5C)[C@H](O)c4ccc(cc4)Oc4cc3cc(c4O)Oc3ccc(cc3)[C@H]2O)c2ccc(O)c(c2)-c2c(O)cc(O)cc21`: the EC50 (as a rule, the concentration at which the effect is half-maximal) in data set [1] is 300 nM; in data set [3] it was > 100000 nM; in data set [6], 1800 nM. The MIC in data set [2] was determined as 0.5 µg/mL (≈ 0.361 µM); in data set [4], 2 µg/mL (≈ 1.44 µM); in data set [7], 1 µg/mL (≈ 0.722 µM); in data set [8], 0.5 µg/mL (≈ 0.361 µM); in data set [9], 0.5 µg/mL (≈ 0.361 µM); in data set [10] it was 1 µg/mL (≈ 0.722 µM). The MIC in data set [11] and in data set [12] was 0.5 µg/mL (≈ 0.361 µM) each time. Also, in [5], the MCC at 3 days was determined as 20 µM.
